What was measured:
Assay type in all cases: in vivo
[1] = system: Oat, Wild (wild oat, Avena fatua); experiment: Test A1 preemergence, Oat, Wild
From the text: (§1) Seeds of plant species selected from, blackgrass (Alopecurus myosuroides), corn (Zea mays), Foxtail, Giant (giant foxtail, Setaria faberi), goosegrass (Eleusine indica), kochia (Bassia scoparia), Oat, Wild (wild oat, Avena fatua), Pigweed, Palmer (palmer amaranth, palmer pigweed, Amaranthus palmeri), ragweed (common ragweed, Ambrosia artemisiifolia), Ryegrass, Italian (Italian ryegrass, Lolium multiflorum), soybean (Glycine max), and wheat (Triticum aestivum) were planted into a blend of loam soil and sand and treated preemergence with a directed soil spray using test chemicals formulated in a non-phytotoxic solvent mixture which included a surfactant. At the same time, plants selected from these crop and weed species and also galium (catchweed bedstraw, Galium aparine) and horseweed (Erigeron canadensis) were planted in pots containing the same blend of loam soil and sand and treated with postemergence applications of test chemicals formulated in the same manner. Plants ranged in height from 2 to 10 cm and were in the one- to two-leaf stage for the postemergence treatment. […] A dash (-) response means no test result.

rice (Oryza sativa) = experiment: Test B1 flooded paddy test, rice; conditions: 250 g ai/ha, Flood, applied to paddy water, 2-leaf stage, visually evaluated after 10 to 14 days
From the text: (§2) A dash (-) response means no test result.

soybean (Glycine max) [2] = experiment: Test A1 preemergence, soybean
From the text: as §1

soybean (Glycine max) [3] = experiment: Test A1 postemergence, soybean; conditions: for Plant response rating, Soybean: Postemergence
From the text: as §1

[4] = system: wheat (Triticum aestivum); experiment: Test A1 preemergence, wheat
From the text: as §1

[5] = system: Pigweed, Palmer (palmer amaranth, palmer pigweed, Amaranthus palmeri); experiment: Test A1 preemergence, Pigweed, Palmer
From the text: as §1

[6] = system: ragweed (common ragweed, Ambrosia artemisiifolia); experiment: Test A1 postemergence, ragweed; conditions: for Plant response rating, Ragweed: Postemergence
From the text: as §1

kochia (Bassia scoparia) [7] = experiment: Test A1 postemergence, kochia; conditions: for Plant response rating, Kochia: Postemergence
From the text: as §1

[8] = system: goosegrass (Eleusine indica); experiment: Test A1 preemergence, goosegrass
From the text: as §1

[9] = system: barnyardgrass (Echinochloa crus-galli); experiment: Test B1 flooded paddy test, barnyardgrass; conditions: 250 g ai/ha, Flood, applied to paddy water, 2-leaf stage, visually evaluated after 10 to 14 days
From the text: as §2

[10] = system: galium (catchweed bedstraw, Galium aparine); experiment: Test A1 postemergence, galium; conditions: for Plant response rating, Galium: Postemergence
From the text: as §1

[11] = system: blackgrass (Alopecurus myosuroides); experiment: Test A1 preemergence, blackgrass
From the text: as §1

[12] = system: ducksalad (Heteranthera limosa); experiment: Test B1 flooded paddy test, ducksalad; conditions: 250 g ai/ha, Flood, applied to paddy water, 2-leaf stage, visually evaluated after 10 to 14 days
From the text: as §2

[13] = system: wheat (Triticum aestivum); experiment: Test A1 postemergence, wheat; conditions: for Plant response rating, Wheat: Postemergence
From the text: as §1

corn (Zea mays) [14] = experiment: Test A1 preemergence, corn
From the text: as §1

[15] = system: Pigweed, Palmer (palmer amaranth, palmer pigweed, Amaranthus palmeri); experiment: Test A1 postemergence, Pigweed, Palmer; conditions: for Plant response rating, Pigweed, Palmer: Postemergence
From the text: as §1

[16] = system: Foxtail, Giant (giant foxtail, Setaria faberi); experiment: Test A1 postemergence, Foxtail, Giant; conditions: for Plant response rating, Foxtail, Giant: Postemergence
From the text: as §1

corn (Zea mays) [17] = experiment: Test A1 postemergence, corn; conditions: Postemergence
From the text: as §1

[18] = system: Oat, Wild (wild oat, Avena fatua); experiment: Test A1 postemergence, Oat, Wild; conditions: for Plant response rating, Oat, Wild: Postemergence
From the text: as §1

[19] = system: goosegrass (Eleusine indica); experiment: Test A1 postemergence, goosegrass; conditions: for Plant response rating, Goosegrass: Postemergence
From the text: as §1

kochia (Bassia scoparia) [20] = experiment: Test A1 preemergence, kochia
From the text: as §1

[21] = system: ragweed (common ragweed, Ambrosia artemisiifolia); experiment: Test A1 preemergence, ragweed
From the text: as §1

[22] = system: Ryegrass, Italian (Italian ryegrass, Lolium multiflorum); experiment: Test A1 preemergence, Ryegrass, Italian
From the text: as §1

[23] = system: blackgrass (Alopecurus myosuroides); experiment: Test A1 postemergence, blackgrass; conditions: Postemergence, 0 to 100 scale (0 no effect, 100 complete control)
From the text: as §1

[24] = system: Ryegrass, Italian (Italian ryegrass, Lolium multiflorum); experiment: Test A1 postemergence, Ryegrass, Italian; conditions: for Plant response rating, Ryegrass, Italian: Postemergence
From the text: as §1

[25] = system: Foxtail, Giant (giant foxtail, Setaria faberi); experiment: Test A1 preemergence, Foxtail, Giant
From the text: as §1

[26] = 31 g ai/ha, 0 to 100 scale (0 no effect, 100 complete control)
[27] = 125 g ai/ha, 0 to 100 scale, 0 no effect, 100 complete control
[28] = 31 g ai/ha, postemergence, 0 to 100 scale (0 no effect, 100 complete control)
[29] = 31 g ai/ha, 0 to 100 scale (0 no effect, 100 complete control), 10 days

Cc1c(NS(=O)(=O)C(F)(F)F)cc(C(=O)N2CCC(C)CC2)c(C)c1C [Compound 366]
Plant response rating, Oat, Wild [1, 26]: 10 | Plant response rating, Oat, Wild [1, 27]: 30 | Plant response rating, Rice (0 to 100 scale, 0 is no effect, 100 is complete control) (rice (Oryza sativa)): 10 | Plant response rating, Soybean (soybean (Glycine max) [2]; [26]): 0 | Plant response rating, Soybean (soybean (Glycine max) [2]; [27]): 50 | Soybean plant response rating (soybean (Glycine max) [3]; [28]): 50 | Plant response rating, Soybean (soybean (Glycine max) [3]; 125 g ai/ha, 0 to 100 scale): 60 | Plant response rating, Wheat [4, 26]: 0 | Plant response rating, Wheat [4, 27]: 10 | Plant response rating, Pigweed, Palmer [5, 26]: 100 | Plant response rating, Pigweed, Palmer [5, 27]: 100 | Ragweed plant response rating [6, 28]: 40 | Plant response rating, Ragweed ([6]; 125 g ai/ha, 0 to 100 scale): 80 | Kochia plant response rating (kochia (Bassia scoparia) [7]; [28]): 0 | Plant response rating, Kochia (kochia (Bassia scoparia) [7]; 125 g ai/ha, 0 to 100 scale): 30 | Plant response rating, Goosegrass [8, 26]: 10 | Plant response rating, Goosegrass [8, 27]: 80 | Plant response rating, Barnyardgrass (0 to 100 scale, 0 is no effect, 100 is complete control) [9]: 15 | Galium plant response rating [10, 28]: 50 | Plant response rating, Galium ([10]; 125 g ai/ha, 0 to 100 scale): 100 | Plant response rating, Blackgrass [11, 26]: 0 | Plant response rating, Blackgrass [11, 27]: 50 | Plant response rating, Ducksalad (0 to 100 scale, 0 is no effect, 100 is complete control) [12]: 65 | Wheat plant response rating [13, 28]: 0 | Plant response rating, Wheat ([13]; 125 g ai/ha, 0 to 100 scale): 20 | Plant response rating, Corn (corn (Zea mays) [14]; [26]): 0 | Plant response rating, Corn (corn (Zea mays) [14]; [27]): 10 | Pigweed, Palmer plant response rating [15, 28]: 10 | Plant response rating, Pigweed, Palmer ([15]; 125 g ai/ha, 0 to 100 scale): 20 | Foxtail, Giant plant response rating [16, 28]: 30 | Plant response rating, Foxtail, Giant ([16]; 125 g ai/ha, 0 to 100 scale): 80 | Plant response rating, Corn (corn (Zea mays) [17]; [29]): 0 | Plant response rating, Corn (corn (Zea mays) [17]; 125 g ai/ha, 0 to 100 scale): 0 | Oat, Wild plant response rating [18, 28]: 0 | Plant response rating, Oat, Wild ([18]; 125 g ai/ha, 0 to 100 scale): 0 | Goosegrass plant response rating [19, 28]: 0 | Plant response rating, Goosegrass ([19]; 125 g ai/ha, 0 to 100 scale): 80 | Plant response rating, Kochia (kochia (Bassia scoparia) [20]; [26]): 0 | Plant response rating, Kochia (kochia (Bassia scoparia) [20]; [27]): 30 | Plant response rating, Ragweed [21, 26]: 30 | Plant response rating, Ragweed [21, 27]: 70 | Plant response rating, Ryegrass, Italian [22, 26]: 0 | Plant response rating, Ryegrass, Italian [22, 27]: 40 | Plant response rating, Blackgrass ([23]; 31 g ai/ha, 10 days): 0 | Plant response rating, Blackgrass ([23]; 125 g ai/ha): 0 | Ryegrass, Italian plant response rating [24, 28]: 0 | Plant response rating, Ryegrass, Italian ([24]; 125 g ai/ha, 0 to 100 scale): 20 | Plant response rating, Foxtail, Giant [25, 26]: 100 | Plant response rating, Foxtail, Giant [25, 27]: 100

Cc1c(NS(=O)(=O)C(F)(F)F)cc(C(=O)N2CCCCC2)c(C)c1C [Compound 326]
Plant response rating, Oat, Wild [1, 26]: 10 | Plant response rating, Oat, Wild [1, 27]: 10 | Plant response rating, Rice (0 to 100 scale, 0 is no effect, 100 is complete control) (rice (Oryza sativa)): 0 | Plant response rating, Soybean (soybean (Glycine max) [2]; [26]): 40 | Plant response rating, Soybean (soybean (Glycine max) [2]; [27]): 90 | Plant response rating, Soybean (soybean (Glycine max) [3]; [29]): 70 | Plant response rating, Soybean (soybean (Glycine max) [3]; 125 g ai/ha, 0 to 100 scale): 70 | Plant response rating, Wheat [4, 26]: 0 | Plant response rating, Wheat [4, 27]: 50 | Plant response rating, Pigweed, Palmer [5, 26]: 90 | Plant response rating, Pigweed, Palmer [5, 27]: 100 | Plant response rating, Ragweed [6, 29]: 60 | Plant response rating, Ragweed ([6]; 125 g ai/ha, 0 to 100 scale): 80 | Plant response rating, Kochia (kochia (Bassia scoparia) [7]; [29]): 30 | Plant response rating, Kochia (kochia (Bassia scoparia) [7]; 125 g ai/ha, 0 to 100 scale): 70 | Plant response rating, Goosegrass [8, 26]: 90 | Plant response rating, Goosegrass [8, 27]: 90 | Plant response rating, Barnyardgrass (0 to 100 scale, 0 is no effect, 100 is complete control) [9]: 0 | Plant response rating, Galium [10, 29]: 70 | Plant response rating, Galium ([10]; 125 g ai/ha, 0 to 100 scale): 100 | Plant response rating, Blackgrass [11, 26]: 0 | Plant response rating, Blackgrass [11, 27]: 0 | Plant response rating, Ducksalad (0 to 100 scale, 0 is no effect, 100 is complete control) [12]: 85 | Plant response rating, Wheat [13, 29]: 0 | Plant response rating, Wheat ([13]; 125 g ai/ha, 0 to 100 scale): 0 | Plant response rating, Corn (corn (Zea mays) [14]; [26]): 0 | Plant response rating, Corn (corn (Zea mays) [14]; [27]): 90 | Plant response rating, Pigweed, Palmer [15, 29]: 40 | Plant response rating, Pigweed, Palmer ([15]; 125 g ai/ha, 0 to 100 scale): 80 | Plant response rating, Foxtail, Giant [16, 29]: 10 | Plant response rating, Foxtail, Giant ([16]; 125 g ai/ha, 0 to 100 scale): 30 | Plant response rating, Corn (corn (Zea mays) [17]; [29]): 0 | Plant response rating, Corn (corn (Zea mays) [17]; 125 g ai/ha, 0 to 100 scale): 0 | Plant response rating, Oat, Wild [18, 29]: 0 | Plant response rating, Oat, Wild ([18]; 125 g ai/ha, 0 to 100 scale): 0 | Plant response rating, Goosegrass [19, 29]: 0 | Plant response rating, Goosegrass ([19]; 125 g ai/ha, 0 to 100 scale): 80 | Plant response rating, Kochia (kochia (Bassia scoparia) [20]; [26]): 80 | Plant response rating, Kochia (kochia (Bassia scoparia) [20]; [27]): 80 | Plant response rating, Ragweed [21, 26]: 90 | Plant response rating, Ragweed [21, 27]: 90 | Plant response rating, Ryegrass, Italian [22, 26]: 20 | Plant response rating, Ryegrass, Italian [22, 27]: 70 | Plant response rating, Blackgrass ([23]; 31 g ai/ha, 10 days): 0 | Plant response rating, Blackgrass ([23]; 125 g ai/ha): 0 | Plant response rating, Ryegrass, Italian [24, 29]: 0 | Plant response rating, Ryegrass, Italian ([24]; 125 g ai/ha, 0 to 100 scale): 30 | Plant response rating, Foxtail, Giant [25, 26]: 100 | Plant response rating, Foxtail, Giant [25, 27]: 100
